Converted amounts (≈) assume the structure as drawn. Read-outs that look alike come from different tables or passages of the source.
How the values were obtained:
[1] = physchem; conditions: thermodynamic from solid
[2] = for concentration of methionine remaining in the supernatant (mother liquor): buffer, 18 h
Method: To the cell free broth containing the solubilized L-methionine, sulfuric acid (96% w/w) was added and its pH lowered to […], the isoelectric point of L-methionine. […] The slurry was then stored overnight at 4° C. to allow for precipitation of the crystals. The slurry was then centrifuged to collect the methionine crystals.
At pH of 1.68, cells from the slurried fermenter broth were separated first by centrifugation followed by filtration through a 0.45 micron filter. The pH of the filtrate was then raised to 5.75, the isoelectric point of methionine by addition of 50% NaOH, resulting in formation of L-methionine crystals. The slurry was placed in a refrigerator at 4° C. for 18 hours to allow for additional crystallization of methionine. The crystals were then removed by centrifugation and filtration and further dried on a lyophilizer. The dried crystals were harvested from the lyophilizer. […] Crystals were collected by centrifugation at 4° C. by using a pre-chilled centrifuge.
For optimal recovery of methionine, solids from the acidified slurry above were removed by centrifugation and filtration and the pH of the recovered filtrate was raised to 5.6 using NaOH. […] This solution was placed again in the refrigerator at 4° C. for 18 hours to allow for formation of additional methionine crystals. Crystals formed after 18 hours at 4° C. were filtered and dried in a lyophilizer.

[3] = soluble methionine concentration in the filtrate of L-methionine-supplemented fermentation broth slurry, by HPLC after centrifugation and filtration
[4] = 25° C., Merck Index 12th Edition 1996; cited from earlier work

Compound	solubility ([1]; 22 °C, pH 5.54, plasma or biological fluid)	solubility ([1]; pH 2.39, plasma or biological fluid)	solubility ([1]; pH 2.49, plasma or biological fluid)	solubility ([1]; pH 8.92, plasma or biological fluid)	solubility ([1]; pH 9.36, plasma or biological fluid)	concentration of methionine remaining in the supernatant (mother liquor) ([2]; pH 5.6)	concentration of methionine remaining in the supernatant (mother liquor) ([2]; pH 5.75)	concentration of methionine remaining in the supernatant ([2]; pH 5.95)	solubility of methionine in fermentation broth ([3]; 22° C., no pH adjustment)	solubility of methionine in the solution versus pH 9.36 ([3]; NaOH 2 equivalent weight, pH 10.22)	solubility of L-methionine versus lower NaOH levels ([3]; NaOH 2.5 equivalent weight, pH 12.53)	concentration of methionine in the filtrate ([3]; slurry with 56 g/L methionine, NaOH 1 eq weight, pH 9.38)	additional methionine solubilized ([3]; slurry with 56 g/L methionine, NaOH 1.5, 2 and 2.5 eq wt, pH 9.82, 10.47 and 12.23)	concentration of methionine in the filtrate ([3]; slurry with 77 g/L methionine, heated to 70° C., no pH adjustment, 0.45 micron filter)	water solubility [4]
CSCC[C@H](N)C(=O)O [L-methionine]	38 mg/mL (≈ 255 mM)	55 mg/mL (≈ 369 mM)	75 mg/mL (≈ 503 mM)	58 mg/mL (≈ 389 mM)	78 mg/mL (≈ 523 mM)	39500 µg/mL	47200 µg/mL	33000 µg/mL	38 mg/mL	unchanged	did not further increase	56000 µg/mL	No additional methionine was solubilized	74600 µg/mL	
CSCCC(N)C(=O)O (racemic) [DL-methionine]															33.81 mg/mL (≈ 227 mM)

Source: patent US8338141B2, “Methionine recovery processes” (Novus International, Inc., priority 2003, dated 2012)
